From patent US10172832B2, “Amide derivatives of N-urea substituted amino acids as formyl peptide receptor like-1 (FPRL-1) receptor modulators” (Allergan, Inc., priority 2011, dated 2019)

Target: T1, FPRL-1 (Homo sapiens, UniProt P25090)
T1 construct: expressed in transfected cells
T1 sequence (P25090 1-351): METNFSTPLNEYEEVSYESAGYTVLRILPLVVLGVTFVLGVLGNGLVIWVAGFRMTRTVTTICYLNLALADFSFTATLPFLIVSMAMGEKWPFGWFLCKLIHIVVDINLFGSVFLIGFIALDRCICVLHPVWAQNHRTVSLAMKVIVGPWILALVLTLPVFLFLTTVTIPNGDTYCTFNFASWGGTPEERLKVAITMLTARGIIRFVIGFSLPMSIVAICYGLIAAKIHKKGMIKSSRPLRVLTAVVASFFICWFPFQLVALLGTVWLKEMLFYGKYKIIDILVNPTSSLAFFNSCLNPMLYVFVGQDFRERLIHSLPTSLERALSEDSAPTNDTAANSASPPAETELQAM
Experiment: compound-induced calcium activity on FLIPR Tetra in CHO-Gα16 cells stably expressing FPRL1
Format: cell-based
Conditions: for EC50: tested 0.61 to 10,000 nM, read-out: FPRL-1 Ga16-CHO EC50; for FPRL-1 Ga16-CHO (Rel. eff.): relative efficacy
Procedure: CHO-Gα16 cells stably expressing FPRL1 were cultured in (F12, 10% FBS, 1% PSA, 400 μg/ml geneticin and 50 μg/ml hygromycin) and HEK-Gqi5 cells stable expressing FPR1 were cultured in (DMEM high glucose, 10% FBS, 1% PSA, 400 μg/ml geneticin and 50 μg/ml hygromycin). In general, the day before the experiment, 18,000 cells/well were plated in a 384-well clear bottom poly-d-lysine coated plate. The following day the screening compound-induced calcium activity was assayed on the FLIPR^Tetra. The drug plates were prepared in 384-well microplates using the EP3 and the MultiPROBE robotic liquid handling systems. Compounds were tested at concentrations ranging from 0.61 to 10,000 nM. Results are expressed as EC50 (nM) and efficacy values.

| Structure (SMILES) | EC50 | FPRL-1 Ga16-CHO (Rel. eff.) |
| --- | --- | --- |
| CCC[C@H](NC(=O)Nc1ccc(Br)cc1)C(=O)NCC(=O)OC [Compound 22, methyl {[(2S)-2-{[(4-bromophenyl)carbamoyl]amino}-pentanoyl]amino}acetate] | 17 nM | (0.88) |
| CC(C)(C)OC(=O)CNC(=O)C(CC(N)=O)NC(=O)Nc1ccc(Br)cc1 (stereo not drawn) [Compound 88, tert-butyl {[4-amino-2-{[(4-bromophenyl)carbamoyl]amino}-4-oxobutanoyl]amino}acetate] | 2310 nM | (0.90) |
| CC(C)C[C@H](NC(=O)Nc1ccc([S+](C)[O-])cc1)C(=O)NCC(=O)OC(C)(C)C (stereo partly drawn) [Compound 75, tert-butyl {[(2S)-4-methyl-2-({[4-(methylsulfinyl)phenyl]carbamoyl}amino)pentanoyl]amino}acetate] | 668 nM | (0.97) |
| CC(C)CC(C)(NC(=O)Nc1ccc(Br)cc1)C(=O)NCC(=O)OC(C)(C)C (stereo not drawn) [Compound 55, tert-butyl {[2-{[(4-bromophenyl)carbamoyl]amino}-2,4-dimethylpentanoyl]amino}acetate] | 58 nM | (0.98) |
| CC(C)C[C@H](NC(=O)Nc1ccc(Br)cc1F)C(=O)NCCO [Compound 36, (2S)-2-{[(4-bromo-2-fluorophenyl)carbamoyl]amino}-N-(2-hydroxyethyl)-4-methylpentanamide] | 77 nM | (1.05) |
| CC[C@H](C)[C@H](NC(=O)Nc1ccc(Br)cc1)C(=O)NCCO [Compound 14, (2S,3S)-2-{[(4-bromophenyl)carbamoyl]amino}-N-(2-hydroxyethyl)-3-methylpentanamide] | 24 nM | (1.00) |
| CC(C)C[C@H](NC(=O)Nc1ccc(S(C)(=O)=O)cc1)C(=O)NCC(=O)OC(C)(C)C [Compound 76, tert-butyl {[(2S)-4-methyl-2-({[4-(methylsulfonyl)phenyl]carbamoyl}amino)pentanoyl]amino}acetate] | 1080 nM | (0.90) |
| CC(C)C[C@H](NC(=O)Nc1ccc(Br)cc1)C(=O)N[C@H](C(=O)OC(C)(C)C)C(C)C [Compound 42, tert-butyl(2S)-2-{[(2S)-2-{[(4-bromophenyl)carbamoyl]amino}-4-methylpentanoyl]amino}-3-methylbutanoate] | 68 nM | (0.98) |
| CC(C)C[C@H](NC(=O)Nc1ccc(Br)cc1F)C(=O)N[C@@H](C)C(N)=O [Compound 40, (2S)-N-[(1S)-2-amino-1-methyl-2-oxoethyl]-2-{[(4-bromo-2-fluorophenyl)carbamoyl]amino}-4-methylpentanamide] | 31 nM | (1.05) |
| CC(C)C[C@@H](NC(=O)Nc1ccc(Br)cc1)C(=O)NC(C)(C)C(=O)O [Compound 87, 2-{[(2R)-2-{[(4-bromophenyl)carbamoyl]amino}-4-methylpentanoyl]amino}-2-methylpropanoic acid] | 490 nM | (0.74) |
| CCC(CC)(NC(=O)Nc1ccc(Br)cc1)C(=O)NCC(=O)OC(C)(C)C [Compound 57, tert-butyl {[2-{[(4-bromophenyl)carbamoyl]amino}-2-ethylbutanoyl]amino}acetate] | 31 nM | (1.03) |
| CC(C)(C)OC(=O)CNC(=O)C(C)(C)NC(=O)Nc1ccc(Br)cc1 [Compound 59, tert-butyl {[2-{[(4-bromophenyl)carbamoyl]amino}-2-methylpropanoyl]amino}acetate] | 114 nM | (1.02) |
| CC(C)C[C@@H](NC(=O)Nc1ccc(Br)cc1F)C(=O)NCC(=O)O [{[(2R)-2-{[(4-bromo-2-fluorophenyl)carbamoyl]amino}-4-methylpentanoyl]amino}acetic acid] | 1490 nM | (0.87) |
| CC(C)C[C@H](NC(=O)Nc1ccc(Br)cc1)C(=O)NC(C)(C)C(=O)OC(C)(C)C [Compound 73, tert-butyl 2-{[(2S)-2-{[(4-bromophenyl)carbamoyl]amino}-4-methylpentanoyl]amino}-2-methylpropanoate] | 133 nM | (1.16) |

Stronger by EC50, values ahead:

| EC50 | FPRL-1 Ga16-CHO (Rel. eff.) | Structure (SMILES) |
| --- | --- | --- |
| 7.4 nM | – | CC(C)C[C@H](NC(=O)Nc1ccc(Br)cc1)C(=O)NC(CO)CO [Compound 48, (2S)-2-{[(4-bromophenyl)carbamoyl]amino}-N-[2-hydroxy-1-(hydroxymethyl)ethyl]-4-methylpentanamide] |
| 10 nM | (0.95) | O=C(O)CNC(=O)C(Cc1c[nH]cn1)NC(=O)Nc1ccc(Br)cc1 (stereo not drawn) [Compound 85, {[2-{[(4-bromophenyl)carbamoyl]amino}-3-(1H-imidazol-4-yl)propanoyl]amino}acetic acid] |
| 1.05 nM | (1.08) | CC(C)C[C@H](NC(=O)Nc1ccc(Br)cc1)C(=O)NCC(N)=O [Compound 32, (2S)-N-(2-amino-2-oxoethyl)-2-{[(4-bromophenyl)carbamoyl]amino}-4-methylpentanamide] |
| 1.8 nM | (0.99) | CC(C)C[C@H](NC(=O)Nc1ccc(C(F)(F)F)cc1)C(=O)NCC(=O)O [Compound 63, {[(2S)-4-methyl-2-({[4-(trifluoromethyl)phenyl]carbamoyl}amino)pentanoyl]amino}acetic acid] |
| 6.4 nM | (1.03) | CCC[C@H](NC(=O)[C@H](CC(C)C)NC(=O)Nc1ccc(Br)cc1)C(N)=O [Compound 53, (2S)-N-[(2S)-1-amino-1-oxopentan-2-yl]-2-{[(4-bromophenyl)carbamoyl]amino}-4-methylpentanamide] |
| 5.1 nM | – | CC(C)C[C@H](NC(=O)Nc1ccc(Br)cc1)C(=O)NCC(O)CO (stereo partly drawn) [Compound 47, (2S)-2-{[(4-bromophenyl)carbamoyl]amino}-N-(2,3-dihydroxypropyl)-4-methylpentanamide] |
| 12 nM | (0.94) | CC(=O)CNC(=O)[C@H](Cc1ccccc1)NC(=O)Nc1ccc(Br)cc1F [Compound 17, (2S)-2-{[(4-bromo-2-fluorophenyl)carbamoyl]amino}-N-(2-oxopropyl)-3-phenylpropanamide] |
| 0.73 nM | (0.97) | O=C(O)CNC(=O)C(Cc1c[nH]c2ccccc12)NC(=O)Nc1ccc(Br)cc1 (stereo not drawn) [{[2-{[(4-bromophenyl)carbamoyl]amino}-3-(1H-indol-3-yl)propanoyl]amino}acetic acid] |
| 1.4 nM | (0.90) | CC(C)C[C@H](NC(=O)Nc1ccc(Br)cc1)C(=O)NCC(=O)N(C)C [Compound 61, (2S)-2-{[(4-bromophenyl)carbamoyl]amino}-N-[2-(dimethylamino)-2-oxoethyl]-4-methylpentanamide] |
| 14 nM | (1.04) | CCC[C@H](NC(=O)Nc1ccc(Br)cc1)C(=O)NCC(=O)OC(C)C [Compound 24, isopropyl {[(2S)-2-{[(4-bromophenyl)carbamoyl]amino}-pentanoyl]amino}acetate] |
| 3.2 nM | (0.91) | CCC[C@H](NC(=O)Nc1ccc(Br)cc1)C(=O)NCC(=O)O [Compound 5, {[(2S)-2-{[(4-bromophenyl)carbamoyl]amino}pentanoyl]amino}acetic acid] |
